Measured values as given in EPA's ToxValDB 9.5 (doi:10.2903/j.efsa.2009.191r).

What was measured:
[1] = test system: Apis mellifera; conditions: acute, mortality
[2] = test system: Canidae; conditions: chronic; duration: 1 years; oral; Dog Other; clinical signs
[3] = test system: Colinus virginianus; conditions: acute, oral, mortality; for LC50: diet
[4] = test system: Rattus norvegicus; conditions: acute; oral; mortality
[5] = test system: Anas platyrhynchos; conditions: short-term; oral; feed; mortality
[6] = test system: Daphnia magna; conditions: acute; duration: 48 hours; mortality
[7] = test system: Oncorhynchus mykiss; conditions: acute; duration: 96 hours; mortality

Row | Structure (SMILES) | LD50 ([1]; dermal) [µg/piece] | LD50 ([1]; oral, unspecified) [µg/piece] | NOAEL [2] [mg/kg-day] | LC50 [3] [mg/kg-day] | LD50 [3] [mg/kg-day] | LD50 [4] [mg/kg-day] | LC50 [5] [mg/kg-day] | LC50 [6] [µg/mL] | LC50 [7] [µg/mL]
1 | COc1ccc([N+](=O)[O-])cc1[O-].[Na+] [Sodium 2-methoxy-5-nitrophenolate] | > 100 | 132 | 0.3 | 1830 | 2070 | 716 | – | – | –
2 | O=[N+]([O-])c1ccccc1[O-].[Na+] [Sodium 2-nitrophenolate] | > 100 | 124 | – | > 2700 | 1050 | 960 | > 2540 | – | –
3 | O=[N+]([O-])c1ccc([O-])cc1.[Na+] [Sodium 4-nitrophenolate] | 111 | > 61.2 | 0.3 | > 1410 | > 1670 | 346 | – | 27.7 | 25
